Source: publication PMC8828861 (Communications Biology, 2022)

Molecular target: M. tuberculosis Rho (MtbRho) (Mycobacterium tuberculosis, UniProt P9WHF3, M495L)
Assay type: biochemical

In the case of `Nc1ncnc2c1ncn2[C@@H]1O[C@H](COP(=O)(O)OP(=O)(O)OP(=O)(O)O)[C@@H](O)[C@H]1O` [ATP], the “TLC NTP hydrolysis assay with poly[rC]” value was “the M495L mutant hydrolyses ATP at a steady-state rate similar to that measured for EcRho”.
